Measurements as given in patent US11382907B2, “Methods and compositions for treating aging-associated impairments using CCR3-inhibitors” (Alkahest, Inc., priority 2017, dated 2022).
Entries after “also recorded” stand apart in the source; their conditions may differ.

Columns and labels:
[1] = Tissue distribution of [14C]-radiolabeled Compound 1 (LSC, whole body autoradiography); type: in vivo, C57BL/6JOlaHsd mice; conditions: 10 mg/kg oral, [14C]-label; 1, 24, 168 hours
Procedure: The distribution of Compound 1 in mouse tissues was determined after oral administration of which was [^14C]-radiolabeled (“Labeled Compound”) to male pigmented C57BL/6JOlaHsd mice (Harlan Labs, BV). The Labeled Compound was administered at 10 mg/kg of body weight, corresponding to 17 μmol/kg. One animal was sacrificed after 1, 24, and 168 hours post-administration. Blood, plasma, and eye radioactivity concentrations were measured using liquid scintillation counting (LSC). Tissue and organ concentrations were determined by whole body autoradiography technique (QWBA). […]
The following sections were taken at different levels through the embedded animal, and whole body sections selected at 5-7 levels in order to allow for quantitative evaluation of radioactivity: adrenal glands; blood; bone marrow; brain; eye (lens); epididymis; fat (white and brown); Harderian gland; heart; kidneys; liver; lung; muscle; pituitary; pancreas; prostate, spinal cord; spleen salivary gland; skin; testis; thyroid; thymus; uveal tract. […]
FIG. 7 depicts a chart of values reporting the area under the curve (AUC) for all three time points, and quantifies each tissue's exposure to the Labeled POI after administration of the compound.

[2] = Pharmacokinetic profile after P.O. dosing (plasma concentration); type: in vivo; conditions: mouse, 30 mg/kg oral gavage, male 2-month-old C57Bl/6 mice, for 8 hours, read-out: plasma concentration of Compound 1 maintained for 8 hours
Procedure: Compound levels were measured by MS/MS by Quintara (Hayward, Calif.).
Plasma from male 2-month-old C57Bl/6 mice was measured for concentrations of Compound 1 at time points of 20 minutes, 2 hours, 8 hours, and 12 hours after oral gavage at 2 doses: 30 mg/kg and 150 mg/kg.

[3] = system: two-month-old C57Bl/6 mice treated with rmCCL11; test: Y-maze test in young mice given recombinant mouse CCL11; type: in vivo; conditions: 2-month-old mice; rmCCL11 i.p.; Compound 1 30 mg/kg p.o. b.i.d.
Procedure: (§1) A large Y-maze test assesses short-term memory of the familiarity of a specific context. Mice are brought to the experimental room for at least 30 min of acclimation to the experimental room conditions (dim lighting) prior to testing. For the initial training trial, the mouse is placed at the end of one arm of a large Y-maze designated “start arm” (arm length: 15 inches). The third arm of the maze is blocked off, allowing the mouse to explore two of the three arms freely (“start arm” and “familiar arm”) for 5 min. Each arm contains spatial cues. One hour later, the mouse is placed back into the maze in the “start arm” and allowed to explore all three arms with the third arm unblocked (“novel arm”). Movements in and out of each arm are tracked using automated tracking software (CleverSys). Testing is performed under dim lighting, and the apparatus is cleaned with 70% ethanol between trials.
Two-month-old C57Bl/6 mice were dosed with either vehicle control or Compound 1 by oral gavage twice daily for 18 days. During the last week of treatment, mice were subjected to behavior testing prior to perfusion on the last day of treatment. All mice received 5 consecutive days of BrdU injection at 150 mg/kg IP immediately prior to treatment start. […]

[4] = system: twenty-four-month-old C57 mice; test: Overnight fecal output, water and food intake in aged mice; type: in vivo; conditions: 4 weeks continuous infusion by osmotic pump
Procedure: Twenty-four-month-old C57 mice were treated for 4 weeks with continuous infusion of Compound 1 or vehicle by Alzet osmotic pump, which were implanted to continuously deliver the two treatments.
Treatment Groups: • Treatment Group 1, Old Controls: Aged C57BL/6 mice (n=15), aged 23 months, received infusion of vehicle by Alzet mini-pump, model 2002 (0.5 uL/hr), for four weeks with one replacement. • Treatment Group 2, Compound 1 (dose 2) in Old: Aged C57BL/6 mice (n=15), aged 23 months, received infusion of ˜50 mg/ml Compound 1 by Alzet mini-pump, model 2002 (0.5 uL/hr), for four weeks with one replacement.
Fecal output was measured by weighing the dry weight of fecal pellets overnight (FIG. 22). […] is a well-known symptom of Parkinson's disease. Water and food intake were measured over the same time period.

[5] = system: three-month-old C57 mice treated with LPS; test: Y maze test in mice given daily LPS; type: in vivo; conditions: 3-month-old mice; daily LPS 0.5 mg/kg IP; 30 mg/kg PO BID, after 3 weeks
Procedure: as §1
Three-month-old C57 mice were given daily doses of lipopolysaccharide (LPS) 0.5 mg/kg IP to induce inflammation and treated with Compound 1 for up to 4 weeks. […]

Cc1cc(C(=O)N(C)C)cc(NC(=O)[C@H]2CCC(=O)N2C2CCN(Cc3ccc(Cl)c(C)c3)CC2)n1 [Compound 1]
crossing of the blood-brain barrier (tissue AUC of radioactivity) [1]: does not cross the blood-brain barrier (BBB) at significant levels | concentration at 8 hours [2]: > 100 nM | memory in the Y-maze [3]: no longer significantly different from control mice | fecal output overnight [4]: significantly lower fecal output | food intake overnight [4]: no differences in total food intake | water intake overnight [4]: significantly higher water intake; also recorded: drank significantly more water | Y maze preference for the novel arm [5]: showed a significant preference for the novel arm
